Reference: patent publication US20140031296A1, “NEW SYNTHETIC PEPTIDES AND THEIR USE” (PERGAMUM AB, priority 2011, published 2014)

How the values were obtained:
[1] = tested on: TNF-α production in LPS stimulated THP-1 cells; assay: Inhibition of TNF-α production in LPS stimulated THP-1 cells (ELISA); type: cell-based, human; settings: mean relative secretion, basal = 0%; for TNF-α at 4 μM peptide / TNF-α at 10 μM peptide: stimulated = 100%; for TNF-α at 40 μM peptide: LPS-stimulated level without peptide = 100%
Method: After 6 hours of incubation at +37° C., 5% CO2 and in a humid atmosphere, the cell supernatants were collected, centrifuged and kept frozen in −20° C. until analyzed for TNF-α content by ELISA (R&D Systems, Minneapolis, Minn., USA). The results are presented as mean relative secretion (%), with stimulated TNF-α level without peptide added set to 100% and basal secretion set to 0% (Table 2).
After 6 hours of incubation, the cell supernatants were collected, centrifuged, and kept frozen in −20° C. until analyzed for TNF-α content by ELISA (R&D Systems, Minneapolis, Minn., USA). The results are presented as mean relative secretion (%), with stimulated TNF-α level without peptide added set to 100% and basal secretion set to 0% (Table 5).

S. aureus (CCUG 1800) = assay: Minimal microbicidal concentration (MMC99) assay, S. aureus; type: cell-based; settings: 2 hours; for MMC99 μM in 50% SWF: 50% heat inactivated simulated wound fluid
Method: Antimicrobial Activity was Measured as Bactericidal Effect on S. aureus Using Minimal Microbicidal Concentration, MMC99, Assay)
S. aureus (#1800; CCUG, Gothenburg, Sweden) cultured on blood-agar plates [Columbia agar (Oxoid, Basingstoke, UK) supplemented with 5% defibrinated horse blood (National Veterinary Institute (SVA), Uppsala, Sweden)] were transferred to brain heart infusion broth (3.7% BHI; Difco, BD Diagnostics, Franklin Lakes, N.J., USA) and incubated in a shaker at 250 rpm+37° C. over night. The culture was thereafter be diluted 1:10 in fresh BHI broth and incubated for additional two hours to reach log-phase growth. The bacteria were pelleted and suspended in 1% BHI medium (BHI broth diluted 100 times in ultra-pure water) to a concentration of 10^7 bacteria/ml as estimated by measuring optical density at 600 nm. Peptides were serially diluted by two-fold steps from 160 μM to 1.25 μM in 1% BHI medium. The peptides (100 μl) were thereafter incubated with bacteria (5 μl á 10^7 bact./ml) for 2 hours at +37° C. Drops (5 μl) of the suspension were placed on blood agar plates. The blood agar plates were incubated over night at +37° C. The MMC99 values, i.e. the lowest peptide concentration needed to achieve a 99% reduction of viable bacteria, were recorded (Table 3). The concentration of the bacterial suspension used in the assay was confirmed by viable counts on blood agar plates.
S. aureus (#1800; CCUG, Gothenburg, Sweden) cultured on blood-agar plates [Columbia agar (Oxoid, Basingstoke, UK) supplemented with 5% defibrinated horse blood (National Veterinary Institute (SVA), Uppsala, Sweden)] were transferred to brain heart infusion broth (3.7% BHI; Difco, BD Diagnostics, Franklin Lakes, N.J., USA) and incubated in a shaker at 250 rpm+37° C. over night. The culture was thereafter be diluted 1:10 in fresh BHI broth and incubated for additional two hours to reach log-phase growth. The bacteria were pelleted and suspended in 1% BHI medium (BHI broth diluted 100 times in ultra-pure water) to a final concentration of 10^7 bacteria/ml as estimated by measuring optical density at 600 nm.
Peptides were serially diluted by two-fold steps from 400 μM to 0.78 μM in either 1% BHI medium or in 50% heat inactivated simulated wound fluid [SWF, containing 1 part 0.1% peptone (Oxoid, Basingstoke, UK) in saline and 1 part fetal bovine serum, diluted 2 times in ultra-pure water].
The peptides (100 μl) were thereafter incubated with bacteria (5 μl a 10^7 bact./ml) for 2 hours at +37° C. Drops (5 μl) of the suspension were placed on blood agar plates. The blood agar plates were incubated over night at +37° C. The MMC99 values, i.e. the lowest peptide concentration needed to achieve a 99% reduction of viable bacteria were recorded (Table 6). The concentration of the bacterial suspension used in the assay was confirmed by viable counts on blood agar plates.
The antimicrobial effects of the peptides 232 (SEQ ID NO: 78), and 220 (SEQ ID NO:67) were analysed by MMC99 (minimal microbicidal concentration) assay against S. aureus (CCUG 1800), MRSA (CCUG 41879), P. aeruginosa (ATCC 15442), E. coli (CCUG 31246), S. pyogenes (CCUG 4207), P. acnes (CCUG 1794T), S. epidermidis (ATCC12228), K. pneumoniae (ATCC 13883), A. baumannii (ATCC 19606), and C. albicans (ATCC 64549). The peptides were purchased from Biopeptide Company (San Diego, Calif., USA) and Bachem AG (Bubendorf, Switzerland) and results are presented in Table 8A and 8B respectively.
Peptides were serially diluted in two different assay medium, 1% BHI medium (brain-heart infusion medium) or 50% heat inactivated simulated wound fluid (SWF), and thereafter incubated with the microorganisms for 2 hours. Drops of the suspension were placed on blood agar plates. The MMC99 values, i.e. the lowest peptide concentration needed to achieve a 99% reduction of viable microorganisms, were recorded. As presented in Table 8, all the peptides have the ability to kill microorganisms frequently appearing in infections. […]

[2] = screen 1, 99% reduction of viable bacteria

QKRATKRFQWLRNLRKVL [Peptide 205]
TNF-α at 4 μM peptide ([1]; screen 2): 91.5% | TNF-α at 10 μM peptide ([1]; screen 2): 89.5% | TNF-α at 40 μM peptide ([1]; screen 2): 28.3% | MMC99 μM in 1% BHI medium (S. aureus (CCUG 1800); screen 2): 12.5 µM | MMC99 μM in 50% SWF (S. aureus (CCUG 1800); screen 2): 50 µM

QSLATKLFQWRRNLRKVR [Peptide 121]
TNF-α at 40 μM peptide ([1]; screen 1): 35% | MMC99 μM in 1% BHI medium (S. aureus (CCUG 1800); [2]): 10 µM

QSEATKCFQWLRNMRKVR [Peptide 113]
TNF-α at 40 μM peptide ([1]; screen 1): 22% | MMC99 μM in 1% BHI medium (S. aureus (CCUG 1800); [2]): >160 µM

FQWQRNMRKVR [Peptide 133]
TNF-α at 40 μM peptide ([1]; screen 1): 135% | MMC99 μM in 1% BHI medium (S. aureus (CCUG 1800); [2]): >160 µM

CFLWRRSMRRLR [Peptide 236]
TNF-α at 40 μM peptide ([1]; screen 2): 94.4%

TKCFLWRRNMRKVRG [Peptide 242]
TNF-α at 40 μM peptide ([1]; screen 2): 116.8%

QREARKFRQWLRNMTKVR [Peptide 203]
TNF-α at 40 μM peptide ([1]; screen 2): 98.1%

KRQSLARTFKQWARNLRKVL [Peptide 215]
TNF-α at 4 μM peptide ([1]; screen 2): 86.6% | TNF-α at 10 μM peptide ([1]; screen 2): 69.6% | TNF-α at 40 μM peptide ([1]; screen 2): 1.3% | MMC99 μM in 1% BHI medium (S. aureus (CCUG 1800); screen 2): 6.25 µM | MMC99 μM in 50% SWF (S. aureus (CCUG 1800); screen 2): 25 µM

EATKCFQWQRNMRKVR [Peptide 158]
TNF-α at 40 μM peptide ([1]; screen 1): 91%

NEADKCFQWQRNMRKVR [Peptide 109]
TNF-α at 40 μM peptide ([1]; screen 1): 47% | MMC99 μM in 1% BHI medium (S. aureus (CCUG 1800); [2]): 160 µM

QSAKTACFLWRRNMRKVR [Peptide 226]
TNF-α at 40 μM peptide ([1]; screen 2): 108.7%

QSEATKLFQWQRNMRKVR [Peptide 112]
TNF-α at 40 μM peptide ([1]; screen 1): 101% | MMC99 μM in 1% BHI medium (S. aureus (CCUG 1800); [2]): >160 µM

FQWQRNIRKIR [Peptide 134]
TNF-α at 40 μM peptide ([1]; screen 1): 109% | MMC99 μM in 1% BHI medium (S. aureus (CCUG 1800); [2]): 40 µM

NSLFEKLAQWLRQLRKVR [Peptide 222]
TNF-α at 4 μM peptide ([1]; screen 2): 89.2% | TNF-α at 10 μM peptide ([1]; screen 2): 65.9% | TNF-α at 40 μM peptide ([1]; screen 2): 32.9% | MMC99 μM in 1% BHI medium (S. aureus (CCUG 1800); screen 2): 12.5 µM | MMC99 μM in 50% SWF (S. aureus (CCUG 1800); screen 2): 100 µM

WRRWLRKMVKRL [Peptide 249]
TNF-α at 4 μM peptide ([1]; screen 2): 91.2% | TNF-α at 10 μM peptide ([1]; screen 2): 78.0% | TNF-α at 40 μM peptide ([1]; screen 2): −0.7% | MMC99 μM in 1% BHI medium (S. aureus (CCUG 1800); screen 2): 12.5 µM | MMC99 μM in 50% SWF (S. aureus (CCUG 1800); screen 2): 6.25 µM

LRLWRRLMRKVW [Peptide 231]
TNF-α at 4 μM peptide ([1]; screen 2): 102.6% | TNF-α at 10 μM peptide ([1]; screen 2): 89.1% | TNF-α at 40 μM peptide ([1]; screen 2): 49.8% | MMC99 μM in 1% BHI medium (S. aureus (CCUG 1800); screen 2): 12.5 µM | MMC99 μM in 50% SWF (S. aureus (CCUG 1800); screen 2): 50 µM

QPEATKCFQWQRNMRKVR [Peptide 104]
TNF-α at 40 μM peptide ([1]; screen 1): 132% | MMC99 μM in 1% BHI medium (S. aureus (CCUG 1800); [2]): >160 µM

FQWKPAIRKVR [Peptide 140]
TNF-α at 40 μM peptide ([1]; screen 1): 117% | MMC99 μM in 1% BHI medium (S. aureus (CCUG 1800); [2]): >160 µM

QSEATKRFQWLRNLRKVL [Peptide 217]
TNF-α at 40 μM peptide ([1]; screen 2): 103.0%

FQWQRNIRKVR [Peptide 136]
TNF-α at 40 μM peptide ([1]; screen 1): 96% | MMC99 μM in 1% BHI medium (S. aureus (CCUG 1800); [2]): >160 µM

QSEATKRFQWLRNLRKVLGP [Peptide 213]
TNF-α at 4 μM peptide ([1]; screen 2): 110.3% | TNF-α at 10 μM peptide ([1]; screen 2): 125.5% | TNF-α at 40 μM peptide ([1]; screen 2): 84.4% | MMC99 μM in 1% BHI medium (S. aureus (CCUG 1800); screen 2): 25 µM | MMC99 μM in 50% SWF (S. aureus (CCUG 1800); screen 2): 200 µM

QSLAEKLFQWLRNRRKVR [Peptide 120]
TNF-α at 40 μM peptide ([1]; screen 1): 49% | MMC99 μM in 1% BHI medium (S. aureus (CCUG 1800); [2]): 10 µM

CWLWRRAMRKVW [Peptide 230]
TNF-α at 4 μM peptide ([1]; screen 2): 119.2% | TNF-α at 10 μM peptide ([1]; screen 2): 135.6% | TNF-α at 40 μM peptide ([1]; screen 2): 80.4% | MMC99 μM in 1% BHI medium (S. aureus (CCUG 1800); screen 2): 25 µM | MMC99 μM in 50% SWF (S. aureus (CCUG 1800); screen 2): 100 µM

QSLATKCFQWQRNMRKVR [Peptide 111]
TNF-α at 40 μM peptide ([1]; screen 1): 121% | MMC99 μM in 1% BHI medium (S. aureus (CCUG 1800); [2]): 20 µM

PEATKCFQWQRNMRKVR [Peptide 108]
TNF-α at 40 μM peptide ([1]; screen 1): 127% | MMC99 μM in 1% BHI medium (S. aureus (CCUG 1800); [2]): >160 µM

CRLWRRNMRKVR [Peptide 229]
TNF-α at 40 μM peptide ([1]; screen 2): 108.5%

CRLWRRRMRKVW [Peptide 233]
TNF-α at 40 μM peptide ([1]; screen 2): 90.7%

QSEYTKRYQWLRNLRKVL [Peptide 204]
TNF-α at 40 μM peptide ([1]; screen 2): 96.9%

CFLWRRNMRKVR [Peptide 227]
TNF-α at 40 μM peptide ([1]; screen 2): 111.0%

LRTWRRLTRKVW [Peptide 234]
TNF-α at 40 μM peptide ([1]; screen 2): 102.0%

QSRATKRFQWHRNARKVL [Peptide 207]
TNF-α at 40 μM peptide ([1]; screen 2): 160.9%

GRRRRSVQWCA [Peptide 255]
TNF-α at 40 μM peptide ([1]; screen 2): 100.7%

VWIVKKQVKRIK [Peptide 245]
TNF-α at 40 μM peptide ([1]; screen 2): 146.3%

QESARKQFRWLRNLTKVL [Peptide 202]
TNF-α at 40 μM peptide ([1]; screen 2): 90.3%

LVWIKRHIKKFK [Peptide 246]
TNF-α at 40 μM peptide ([1]; screen 2): 125.5%

QSEATKCFLWRRNMRKVR [Peptide 225]
TNF-α at 40 μM peptide ([1]; screen 2): 111.6%

VSQSEATKRFQWLRNLRKVL [Peptide 214]
TNF-α at 40 μM peptide ([1]; screen 2): 88.8%

QSLAEKLFWQLRNLRKVR [Peptide 221]
TNF-α at 40 μM peptide ([1]; screen 2): 94.4%

WRRWLRKSVKRL [Peptide 247]
TNF-α at 40 μM peptide ([1]; screen 2): 88.2%

LRLWRRSMRKVW [Peptide 235]
TNF-α at 40 μM peptide ([1]; screen 2): 89.3%

QSRATKRFQWLRNHRKVL [Peptide 208]
TNF-α at 40 μM peptide ([1]; screen 2): 130.2%

LVKRLNRLWQFRKTAESQ [Peptide 216]
TNF-α at 40 μM peptide ([1]; screen 2): 121.9%

FQWKRAMRKVR [Peptide 122]
MMC99 μM in 1% BHI medium (S. aureus (CCUG 1800); [2]): 20 µM

QREARKRFQWLRNMTKVR [Peptide 201]
TNF-α at 40 μM peptide ([1]; screen 2): 128.6%

CFLWRRLMRKV [Peptide 237]
TNF-α at 40 μM peptide ([1]; screen 2): 89.2%

QSAARTFKQWARNLRKTL [Peptide 210]
TNF-α at 40 μM peptide ([1]; screen 2): 101.0%

WFKCFQWQRNMRKVR [Peptide 243]
TNF-α at 40 μM peptide ([1]; screen 2): 113.1%
